The test relates to CD2F1 mice, L1210 leukemia ip, survival T/C. The experiment in a line: NCI In Vivo Anticancer Drug Screen. Data for tumor model L1210 Leukemia (intraperitoneal) in CD2F1 (CDF1) mice. As to conditions: higher = longer survival. In outline: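 Tumor-bearing mice (transplanted tumor) were split into treated and vehicle control groups, and the measured endpoint of each treated group was divided by that of its vehicle controls.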

[1] abbreviates: endpoint: mean survival time, dose: 100.0 mg/kg/injection, schedule: Q04DX003 (ip), vehicle: saline with Tween-80.
Setting [2] is: endpoint: mean survival time, dose: 200.0 mg/kg/injection, schedule: Q04DX003 (ip), vehicle: saline with Tween-80.
The mark [3] stands for this setting: endpoint: mean survival time, dose: 400.0 mg/kg/injection, schedule: Q04DX003 (ip), vehicle: saline with Tween-80.
The mark [4] stands for this setting: endpoint: mean survival time, dose: 100.0 mg/kg/injection, schedule: Q01DX009 (ip), vehicle: saline with Tween-80.
Where [5] appears, read: endpoint: mean survival time, dose: 200.0 mg/kg/injection, schedule: Q01DX009 (ip), vehicle: saline with Tween-80.
Setting [6] is: endpoint: mean survival time, dose: 400.0 mg/kg/injection, schedule: Q01DX009 (ip), vehicle: saline with Tween-80.

From PubChem BioAssay AID256 (DTP/NCI, 2004) come the findings set out here.

Values joined by “and” are separate entries in the source; they are usually repeats but may differ in a detail not shown here. Equal values may be shown once. Toxic doses and inconclusive results are not listed.

For `Cc1ccc(S(=O)(=O)N/N=C/C(=O)O)cc1`, the T/C runs as follows: (endpoint: mean survival time, dose: 25.0 mg/kg/injection, schedule: Q01DX009 (ip), vehicle: other) 117 % of control and 108 % of control; (endpoint: mean survival time, dose: 100.0 mg/kg/injection, schedule: Q01DX009 (ip), vehicle: other) 123 % of control; (endpoint: mean survival time, dose: 100.0 mg/kg/injection, schedule: Q04DX003 (ip), vehicle: Klucel (hydroxypropylcellulose) (HPC)) 150 % of control; under setting [1], 123 % of control; (endpoint: mean survival time, dose: 200.0 mg/kg/injection, schedule: Q01DX009 (ip), vehicle: other) 96 % of control and 102 % of control; (endpoint: mean survival time, dose: 400.0 mg/kg/injection, schedule: Q04DX003 (ip), vehicle: Klucel (hydroxypropylcellulose) (HPC)) 186 % of control. For the same compound, the T/C (endpoint: mean survival time, dose: 600.0 mg/kg/injection, schedule: Q04DX003 (ip), vehicle: Klucel (hydroxypropylcellulose) (HPC)) was 114 % of control; the T/C (endpoint: mean survival time, dose: 600.0 mg/kg/injection, schedule: Q04DX003 (ip), vehicle: saline with Tween-80) is 153 % of control; the T/C (endpoint: median survival time, dose: 1.0 mg/kg/injection, schedule: Q03HX024 (ip), vehicle: saline) was 111 % of control; the T/C (endpoint: median survival time, dose: 2.0 mg/kg/injection, schedule: Q03HX016 (ip), vehicle: saline) was 124 % of control; the T/C (endpoint: median survival time, dose: 2.0 mg/kg/injection, schedule: Q03HX024 (ip), vehicle: saline) was 112 % of control; the T/C (endpoint: median survival time, dose: 4.0 mg/kg/injection, schedule: Q03HX008 (ip), vehicle: saline) is 124 % of control. The T/C (endpoint: median survival time, dose: 4.0 mg/kg/injection, schedule: Q03HX024 (ip), vehicle: saline) is 121 % of control; the T/C (endpoint: median survival time, dose: 8.0 mg/kg/injection, schedule: Q01DX009 (sc), vehicle: saline) was 102 % of control; the T/C (endpoint: median survival time, dose: 16.0 mg/kg/injection, schedule: Q01DX009 (oral), vehicle: saline) is 101 % of control; the T/C (endpoint: median survival time, dose: 16.0 mg/kg/injection, schedule: Q01DX009 (sc), vehicle: saline) is 104 % of control; the T/C (endpoint: median survival time, dose: 32.0 mg/kg/injection, schedule: Q01DX001 (sc), vehicle: saline) is 104 % of control; the T/C (endpoint: median survival time, dose: 32.0 mg/kg/injection, schedule: Q01DX009 (ip), vehicle: saline) is 166 % of control. Also, the T/C is 98 % of control (endpoint: median survival time, dose: 32.0 mg/kg/injection, schedule: Q01DX009 (oral), vehicle: saline); 116 % of control (endpoint: median survival time, dose: 32.0 mg/kg/injection, schedule: Q01DX009 (sc), vehicle: saline); 123 % of control (endpoint: median survival time, dose: 32.0 mg/kg/injection, schedule: Q03HX016 (ip), vehicle: saline); 92 % of control (endpoint: median survival time, dose: 32.0 mg/kg/injection, schedule: Q03HX024 (ip), vehicle: saline); 105 % of control (endpoint: median survival time, dose: 64.0 mg/kg/injection, schedule: Q01DX001 (sc), vehicle: saline); 157 % of control (endpoint: median survival time, dose: 64.0 mg/kg/injection, schedule: Q01DX009 (ip), vehicle: saline). Also, the T/C reads like this: (endpoint: median survival time, dose: 64.0 mg/kg/injection, schedule: Q01DX009 (oral), vehicle: saline) 102 % of control; (endpoint: median survival time, dose: 64.0 mg/kg/injection, schedule: Q01DX009 (sc), vehicle: saline) 116 % of control; (endpoint: median survival time, dose: 64.0 mg/kg/injection, schedule: Q04DX003 (ip), vehicle: saline) 164 % of control; (endpoint: median survival time, dose: 128.0 mg/kg/injection, schedule: Q01DX001 (oral), vehicle: saline) 102 % of control; (endpoint: median survival time, dose: 128.0 mg/kg/injection, schedule: Q01DX001 (sc), vehicle: saline) 104 % of control; (endpoint: median survival time, dose: 128.0 mg/kg/injection, schedule: Q01DX009 (oral), vehicle: saline) 102 % of control. Moreover, the T/C reads like this: (endpoint: median survival time, dose: 128.0 mg/kg/injection, schedule: Q01DX009 (sc), vehicle: saline) 116 % of control; (endpoint: median survival time, dose: 128.0 mg/kg/injection, schedule: Q04DX003 (ip), vehicle: saline) 168 % of control; (endpoint: median survival time, dose: 128.0 mg/kg/injection, schedule: Q08DX002 (ip), vehicle: saline) 155 % of control; (endpoint: median survival time, dose: 256.0 mg/kg/injection, schedule: Q01DX001 (oral), vehicle: saline) 98 % of control; (endpoint: median survival time, dose: 256.0 mg/kg/injection, schedule: Q01DX001 (sc), vehicle: saline) 107 % of control; (endpoint: median survival time, dose: 256.0 mg/kg/injection, schedule: Q01DX009 (oral), vehicle: saline) 105 % of control. For the same compound, the T/C is, setting by setting: (endpoint: median survival time, dose: 512.0 mg/kg/injection, schedule: Q01DX001 (oral), vehicle: saline) 110 % of control; (endpoint: median survival time, dose: 512.0 mg/kg/injection, schedule: Q01DX001 (sc), vehicle: saline) 112 % of control; (endpoint: median survival time, dose: 1024.0 mg/kg/injection, schedule: Q01DX001 (oral), vehicle: saline) 123 % of control.

With `CC1=C(C)C2(C)C(C)C2(C)C1C` (configuration not stated), the T/C reads like this: under setting [1], 90 % of control; under setting [2], 110 % of control; under setting [3], 98 % of control.

Take `COC(=O)C1N=C1c1ccccc1.COC(=O)C1N=C1c1ccccc1.[Cl][Pd][Cl]` (configuration not stated): the T/C reads like this: (endpoint: mean survival time, dose: 3.13 mg/kg/injection, schedule: Q04DX003 (ip), vehicle: distilled water + Tween-80) 95 % of control; (endpoint: mean survival time, dose: 6.25 mg/kg/injection, schedule: Q04DX003 (ip), vehicle: distilled water + Tween-80) 103 % of control; (endpoint: mean survival time, dose: 12.5 mg/kg/injection, schedule: Q04DX003 (ip), vehicle: distilled water + Tween-80) 91 % of control; (endpoint: mean survival time, dose: 25.0 mg/kg/injection, schedule: Q04DX003 (ip), vehicle: distilled water + Tween-80) 103 % of control; (endpoint: mean survival time, dose: 50.0 mg/kg/injection, schedule: Q04DX003 (ip), vehicle: distilled water + Tween-80) 101 % of control; (endpoint: mean survival time, dose: 100.0 mg/kg/injection, schedule: Q04DX003 (ip), vehicle: distilled water + Tween-80) 101 % of control. Moreover, the T/C (endpoint: mean survival time, dose: 200.0 mg/kg/injection, schedule: Q04DX003 (ip), vehicle: distilled water + Tween-80) is 103 % of control.

On to `[Cl][Pt][Cl].c1ccc([SeH]c2ccccc2)cc1.c1ccc([SeH]c2ccccc2)cc1`, for which the T/C by setting is: (endpoint: mean survival time, dose: 25.0 mg/kg/injection, schedule: Q04DX003 (ip), vehicle: other) 97 % of control; (endpoint: mean survival time, dose: 50.0 mg/kg/injection, schedule: Q04DX003 (ip), vehicle: other) 102 % of control; (endpoint: mean survival time, dose: 100.0 mg/kg/injection, schedule: Q04DX003 (ip), vehicle: other) 98 % of control; (endpoint: mean survival time, dose: 200.0 mg/kg/injection, schedule: Q04DX003 (ip), vehicle: other) 101 % of control; (endpoint: mean survival time, dose: 400.0 mg/kg/injection, schedule: Q04DX003 (ip), vehicle: other) 100 % of control.

In the case of `O=NN(CCCl)C(=O)Nc1ccc(CCO)cc1`, the T/C by setting is: (endpoint: mean survival time, dose: 0.31 mg/kg/injection, schedule: Q01DX001 (ip), vehicle: other) 103 % of control; (endpoint: mean survival time, dose: 0.62 mg/kg/injection, schedule: Q01DX001 (ip), vehicle: other) 97 % of control; (endpoint: mean survival time, dose: 1.25 mg/kg/injection, schedule: Q01DX001 (ip), vehicle: other) 105 % of control; (endpoint: mean survival time, dose: 2.03 mg/kg/injection, schedule: Q01DX009 (ip), vehicle: acetone) 205 % of control; (endpoint: mean survival time, dose: 2.5 mg/kg/injection, schedule: Q01DX001 (ip), vehicle: other) 120 % of control; (endpoint: mean survival time, dose: 3.08 mg/kg/injection, schedule: Q01DX009 (ip), vehicle: saline with Tween-80) 203 % of control. In addition, the T/C was 300 % of control (endpoint: mean survival time, dose: 4.62 mg/kg/injection, schedule: Q01DX009 (ip), vehicle: saline with Tween-80); 277 % of control (endpoint: mean survival time, dose: 9.75 mg/kg/injection, schedule: Q01DX001 (ip), vehicle: other); 361 % of control (endpoint: mean survival time, dose: 19.5 mg/kg/injection, schedule: Q01DX001 (ip), vehicle: other); 98 % of control (endpoint: mean survival time, dose: 39.0 mg/kg/injection, schedule: Q01DX001 (ip), vehicle: other); 172 % of control (endpoint: mean survival time, dose: 100.0 mg/kg/injection, schedule: Q01DX001 (ip), vehicle: carboxymethylcellulose (CMC)); 170 % of control (endpoint: mean survival time, dose: 200.0 mg/kg/injection, schedule: Q01DX001 (ip), vehicle: carboxymethylcellulose (CMC)). Besides, the T/C (endpoint: mean survival time, dose: 400.0 mg/kg/injection, schedule: Q01DX001 (ip), vehicle: carboxymethylcellulose (CMC)) was 307 % of control.

For `CC(Oc1ccccc1)C(=O)c1ccccc1` (configuration not stated), the T/C is 93 % of control under setting [4]; 97 % of control under setting [1]; 93 % of control under setting [5]; 100 % of control under setting [2]; 96 % of control under setting [6]; 90 % of control under setting [3].

Take `COc1cc([N+](=O)[O-])c(C=O)c(C(=O)O)c1OC`: the T/C reads like this: under setting [4], 103 % of control; under setting [1], 90 % of control; under setting [5], 104 % of control; under setting [2], 98 % of control; under setting [6], 110 % of control; under setting [3], 107 % of control.

With `N#Cc1ccc(C(Cl)(Cl)Cl)cc1`, the T/C by setting is: under setting [1], 104 % of control; under setting [2], 98 % of control; under setting [3], 96 % of control.
